From patent publication US11046945B2, “Labeled glutaminase proteins, isolated glutaminase protein mutants, methods of use, and kit” (CORNELL UNIVERSITY, priority 2013, dated 2021)

Biological target: T1, GAC (Mus musculus, UniProt D3Z7P3)
T1 construct: plasmid (residues 72-603 for GAC, 72-674 for KGA); His-tag with thrombin cleavage site (N, cleaved yes); made in house; host or cells: pET23a vector
T1 sequence (D3Z7P3 72-603 isoform D3Z7P3-2): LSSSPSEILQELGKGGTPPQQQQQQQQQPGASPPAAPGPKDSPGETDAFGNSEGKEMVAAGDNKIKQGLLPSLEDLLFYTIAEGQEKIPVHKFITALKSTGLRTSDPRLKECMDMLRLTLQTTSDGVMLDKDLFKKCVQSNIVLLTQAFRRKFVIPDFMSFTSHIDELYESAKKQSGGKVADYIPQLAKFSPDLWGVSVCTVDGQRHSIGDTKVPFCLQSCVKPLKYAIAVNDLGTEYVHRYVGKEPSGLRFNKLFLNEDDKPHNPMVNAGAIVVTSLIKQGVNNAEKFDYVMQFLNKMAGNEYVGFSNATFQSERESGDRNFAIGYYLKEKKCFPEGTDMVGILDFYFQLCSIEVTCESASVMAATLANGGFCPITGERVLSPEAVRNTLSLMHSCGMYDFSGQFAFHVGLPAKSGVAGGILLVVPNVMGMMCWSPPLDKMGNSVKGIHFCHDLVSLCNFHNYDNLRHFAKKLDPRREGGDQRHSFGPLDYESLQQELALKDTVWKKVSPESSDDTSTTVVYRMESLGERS
Assay: Real-time glutaminase activity assay coupled to GDH (NADH fluorescence)
Type: biochemical
Settings: for inhibition of GAC activity: 10 nM 488-GAC or unlabeled WT-GAC, 20 mM glutamine, 50 mM phosphate
Method: [formula] where F is the normalized fluorescence at given drug concentration (i.e., F/F0), and Fsat is the normalized fluorescence at saturating concentrations of drug, as shown in FIG. 7A. Real-time activity assays were prepared in 1 mL samples, where 10 units of glutamate dehydrogenase (Sigma) and 2 mM NAD^+ (Sigma) was prepared in 50 mM Tris-Acetate pH=8.5, 0.1 mM EDTA and equilibrated at 20° C. 10 nM WT GAC was added and allowed to equilibrate 2 minutes before beginning to monitor fluorescence of 488-GAC (490 nm excitation, 520 nm emission) and NADH fluorescence (340 nm excitation, 490 nm emission). Appropriate dilutions of 968 or BPTES prepared in DMSO were injected after 30 seconds and allowed to equilibrate for 2 minutes before 180 μL of a solution of 333 mM K2HPO4, 133 mM glutamine, 50 mM Tris-Acetate pH 8.5, 0.1 mM EDTA was added to initiate GAC activation. The activity of GAC was indirectly measured by the NADH produced by the added glutamate dehydrogenase, which converts the product of glutaminase activity, glutamate, to α-ketoglutarate and ammonia through reducing NAD^+ to NADH. Because solutions containing glutamine undergo non-enzymatic degradation to glutamate, samples were further analyzed by subtracting the evolved NADH produced by glutaminase in the presence of 968, BPTES, or the equivalent volume of DMSO as a control, by the evolved NADH produced in the absence of glutaminase under identical experimental conditions. Evolved NADH was quantified using a standard curve of freshly prepared NADH (Sigma) in 50 mM Tris-Acetate pH=8.5, 0.1 mM EDTA.
Procedures for the described real-time binding and inhibition assays were adapted for 96-well microtiter format with minor alterations. Briefly, 2 μL of inhibitor or DMSO was distributed across the 96-well plate followed by addition of 200 μL 10 nM 488-GAC, unlabeled WT-GAC, or no added GAC as a negative control in 50 mM Tris-Acetate pH 8.5, 0.1 mM EDTA and immediate monitoring of 488 fluorescence (490 nm/520 nm excitation/emission, 5 nm/20 nm excitation/emission slits). […]

## CN(C)c1ccc(C2Nc3ccc4ccccc4c3C3=C2C(=O)CC(C)(C)C3)cc1Br (stereo not drawn) [compound 968]
  inhibition of GAC activity: dose-dependent inhibition
GAC decreased from 50 nM to 5 nM, 968 pre-incubated
  inhibition of GAC activity at 5 nM versus 50 nM GAC: higher efficacy and potency

## O=C(Cc1ccccc1)Nc1nnc(CCSCCc2nnc(NC(=O)Cc3ccccc3)s2)s1 [BPTES]
  inhibition of GAC activity: potent inhibition
